# According to BindingDB's records for doi:10.1016/j.bmc.2015.04.057 (Beni-Suef University, 2015):
# Assay: Antiinflammatory activity in mouse RAW264.7 cells assessed as inhibition of LPS-induced iNOS activity incubated for 30 mins prior to LPS challenge measured after 24 hrs by Griess assay
row,Structure (SMILES),IC50 [µM]
1,O=c1sc2ccccc2n1CCCCCCN1CCN(CCn2c(=O)sc3ccccc32)CC1,3.43
2,O=c1sc2ccccc2n1CCCCCCN1CCN(CCCn2c(=O)sc3ccccc32)CC1,2.57
3,O=c1oc2ccccc2n1CCCCCCN1CCN(CCCn2c(=O)oc3ccccc32)CC1,4.5
4,c1ccc2sc(SCCCCN3CCN(CCCCSc4nc5ccccc5s4)CC3)nc2c1,0.41
5,c1ccc2oc(SCCCCN3CCN(CCCCSc4nc5ccccc5o4)CC3)nc2c1,1.12
6,O=c1oc2ccccc2n1CCCCCCN1CCN(CCCCCn2c(=O)oc3ccccc32)CC1,2.9
7,O=c1sc2ccccc2n1CCCCCN1CCN(CCn2c(=O)sc3ccccc32)CC1,4.51
8,O=c1oc2ccccc2n1CCCCCCN1CCN(CCn2c(=O)oc3ccccc32)CC1,4.66
9,O=c1sc2ccccc2n1CCCCCCN1CCN(CCCCCn2c(=O)sc3ccccc32)CC1,0.29
10,O=c1oc2ccccc2n1CCCCCCN1CCN(CCCCn2c(=O)oc3ccccc32)CC1,1.77
11,O=c1sc2ccccc2n1CCCCCN1CCN(CCCn2c(=O)sc3ccccc32)CC1,2.55
12,O=c1oc2ccccc2n1CCCCCN1CCN(CCCCn2c(=O)oc3ccccc32)CC1,4.54
13,O=c1sc2ccccc2n1CCCN1CCN(CCCn2c(=O)sc3ccccc32)CC1,4.62
14,O=c1oc2ccccc2n1CCCCCN1CCN(CCCCCn2c(=O)oc3ccccc32)CC1,4.43
15,O=c1oc2ccccc2n1CCCCCN1CCN(CCCn2c(=O)oc3ccccc32)CC1,4.86
16,O=c1oc2ccccc2n1CCCCCN1CCN(CCn2c(=O)oc3ccccc32)CC1,4.98
17,O=c1sc2ccccc2n1CCCCCCN1CCN(CCCCn2c(=O)sc3ccccc32)CC1,0.51
18,O=c1sc2ccccc2n1CCCCCN1CCN(CCCCCn2c(=O)sc3ccccc32)CC1,0.41
19,O=c1sc2ccccc2n1CCCCCCN1CCN(CCCCCCn2c(=O)sc3ccccc32)CC1,0.28
20,O=c1oc2ccccc2n1CCCCCCN1CCN(CCCCCCn2c(=O)oc3ccccc32)CC1,4.22
21,O=c1sc2ccccc2n1CCCCN1CCN(CCCn2c(=O)sc3ccccc32)CC1,4.51
